This is an account of results in patent US20110178110A1, “Genotype and Expression Analysis for Use in Predicting Outcome and Therapy Selection” (University of Southern California, priority 2008, published 2011).

One assay relates to stage II colon cancer. As to the kind of experiment: Tumor recurrence in stage II colon cancer patients treated with 5-FU based adjuvant chemotherapy. The class given is in vivo, human. The procedure: Methods: Blood specimens from 107 patients (median age of 60 years; range: 22-86) were obtained at the University of Southern California medical facilities. All patients were diagnosed with high-risk, lymph node negative, stage II colon cancer and were uniformly treated with 5-FU based adjuvant chemotherapy. The median follow-up was 4.8 years (range: 0.3-16.8). […] Genomic DNA was extracted from peripheral blood and genotypes were determined using PCR-RFLP.

The test system of assay [1] is metastatic adenocarcinoma of the colon or rectum. As to conditions: individuals with serum LDH more than 1.5 times the upper limit of normal; interim data; cited from earlier work.

Regarding `O=c1[nH]cc(F)c(=O)[nH]1` [5-FU, Fluorouracil], in the assay with stage II colon cancer, the “Probability ± SE of 3-year recurrence” value is given as 0.29 ± 0.06. Moreover, in the assay on stage II colon cancer (by adjuvant therapy), the “Median time to recurrence (TTR) (95% CI)” value was 9.4 (4.8, 16.8+) yrs.

With `Clc1ccc(Nc2nnc(Cc3ccncc3)c3ccccc23)cc1.O=C(O)CCC(=O)O` [PTK/ZK, 1-[4-Chloroanilino]-4-[4-pyridylmethyl]phthalazine Succinate], the “clinical benefit when PTK/ZK was added to FOLFOX4, compared to FOLFOX4 plus placebo” value in assay [1] is listed as “greater clinical benefit”.
